# According to patent US10781224B2, “Bis(oxymethyl)phosphinic acid and biogenic metal salts thereof as regulators of plant growth and development” (priority 2016, dated 2020):
# Tested on: winter wheat (Vershin variety)
# Experiment: Winter wheat seed treatment with BHMPA salts: germinating power (length and mass of roots and sprouts)
# Format: in vivo
# Procedure, shortened: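 Seeds (50 per Petri dish on two layers of filter paper) soaked 1 h in BHMPA or its Ca, Mg, Na, Co, Mn, Cu or Zn salts at 1·10^−6-1·10^−12%, with water controls. Germination energy read on day 4, germination on day 8 (wheat) or day 7 (rice, corn), as % means of four replicates. Germinating power taken as root and sprout length plus wet and dry mass per 100 seedlings.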
# [1] = comparative study, 1·10^−9% solution
structure (smiles),measurement,setting,value
"O=P([O-])(CO)CO.O=P([O-])(CO)CO.[Zn+2] [Zn-salt, Zinc BHMPA Salt]","Length, root",1·10^−6% solution,9.1 cm
same,"Length, root, + % to control",1·10^−6% solution,−6%
same,"Length, sprout",1·10^−6% solution,6.9 cm
same,"Length, sprout, + % to control",1·10^−6% solution,−4%
same,"Mass, dry, root",1·10^−6% solution,0.60 g/100 plantlings
same,"Mass, dry, root, + % to control",1·10^−6% solution,5%
same,"Mass, dry, sprout",1·10^−6% solution,0.61 g/100 plantlings
same,"Mass, dry, sprout, + % to control",1·10^−6% solution,−4%
same,"Mass, wet, root",1·10^−6% solution,2.58 g/100 plantlings
same,"Mass, wet, root, + % to control",1·10^−6% solution,0%
same,"Mass, wet, sprout",1·10^−6% solution,4.73 g/100 plantlings
same,"Mass, wet, sprout, + % to control",1·10^−6% solution,−1%
same,"Length, root",1·10^−7% solution,10.2 cm
same,"Length, root, + % to control",1·10^−7% solution,5%
same,"Length, sprout",1·10^−7% solution,7.3 cm
same,"Length, sprout, + % to control",1·10^−7% solution,1%
same,"Mass, dry, root",1·10^−7% solution,0.62 g/100 plantlings
same,"Mass, dry, root, + % to control",1·10^−7% solution,9%
same,"Mass, dry, sprout",1·10^−7% solution,0.70 g/100 plantlings
same,"Mass, dry, sprout, + % to control",1·10^−7% solution,9%
same,"Mass, wet, root",1·10^−7% solution,2.61 g/100 plantlings
same,"Mass, wet, root, + % to control",1·10^−7% solution,1%
same,"Mass, wet, sprout",1·10^−7% solution,4.88 g/100 plantlings
same,"Mass, wet, sprout, + % to control",1·10^−7% solution,2.5%
same,"Length, root",1·10^−8% solution,10.3 cm
same,"Length, root, + % to control",1·10^−8% solution,6%
same,"Length, sprout",1·10^−8% solution,7.5 cm
same,"Length, sprout, + % to control",1·10^−8% solution,4%
same,"Mass, dry, root",1·10^−8% solution,0.64 g/100 plantlings
same,"Mass, dry, root, + % to control",1·10^−8% solution,12%
same,"Mass, dry, sprout",1·10^−8% solution,0.77 g/100 plantlings
same,"Mass, dry, sprout, + % to control",1·10^−8% solution,20%
same,"Mass, wet, root",1·10^−8% solution,2.77 g/100 plantlings
same,"Mass, wet, root, + % to control",1·10^−8% solution,7%
same,"Mass, wet, sprout",1·10^−8% solution,4.98 g/100 plantlings
same,"Mass, wet, sprout, + % to control",1·10^−8% solution,5%
same,"Length, root",1·10^−9% solution,10.9 cm
same,"Length, root, + % to control",1·10^−9% solution,12%
same,"Length, sprout",1·10^−9% solution,7.6 cm
same,"Length, sprout, + % to control",1·10^−9% solution,5.5%
same,"Mass, dry, root",1·10^−9% solution,0.69 g/100 plantlings
same,"Mass, dry, root, + % to control",1·10^−9% solution,21%
same,"Mass, dry, sprout",1·10^−9% solution,0.82 g/100 plantlings
same,"Mass, dry, sprout, + % to control",1·10^−9% solution,28%
same,"Mass, wet, root",1·10^−9% solution,3.58 g/100 plantlings
same,"Mass, wet, root, + % to control",1·10^−9% solution,38%
same,"Mass, wet, sprout",1·10^−9% solution,5.13 g/100 plantlings
same,"Mass, wet, sprout, + % to control",1·10^−9% solution,8%
same,"Length, root",1·10^−10% solution,10.8 cm
same,"Length, root, + % to control",1·10^−10% solution,11%
same,"Length, sprout",1·10^−10% solution,7.6 cm
same,"Length, sprout, + % to control",1·10^−10% solution,5.5%
same,"Mass, dry, root",1·10^−10% solution,0.65 g/100 plantlings
same,"Mass, dry, root, + % to control",1·10^−10% solution,14%
same,"Mass, dry, sprout",1·10^−10% solution,0.80 g/100 plantlings
same,"Mass, dry, sprout, + % to control",1·10^−10% solution,25%
same,"Mass, wet, root",1·10^−10% solution,3.24 g/100 plantlings
same,"Mass, wet, root, + % to control",1·10^−10% solution,25%
same,"Mass, wet, sprout",1·10^−10% solution,4.96 g/100 plantlings
same,"Mass, wet, sprout, + % to control",1·10^−10% solution,4%
same,"Length, root",1·10^−11% solution,10.3 cm
same,"Length, root, + % to control",1·10^−11% solution,6%
same,"Length, sprout",1·10^−11% solution,7.3 cm
same,"Length, sprout, + % to control",1·10^−11% solution,1%
same,"Mass, dry, root",1·10^−11% solution,0.63 g/100 plantlings
same,"Mass, dry, root, + % to control",1·10^−11% solution,10.5%
same,"Mass, dry, sprout",1·10^−11% solution,0.74 g/100 plantlings
same,"Mass, dry, sprout, + % to control",1·10^−11% solution,16%
same,"Mass, wet, root",1·10^−11% solution,2.8 g/100 plantlings
same,"Mass, wet, root, + % to control",1·10^−11% solution,8%
same,"Mass, wet, sprout",1·10^−11% solution,4.92 g/100 plantlings
same,"Mass, wet, sprout, + % to control",1·10^−11% solution,3%
same,"Length, root",1·10^−12% solution,10.1 cm
same,"Length, root, + % to control",1·10^−12% solution,4%
same,"Length, sprout",1·10^−12% solution,7.2 cm
same,"Length, sprout, + % to control",1·10^−12% solution,0%
same,"Mass, dry, root",1·10^−12% solution,0.62 g/100 plantlings
same,"Mass, dry, root, + % to control",1·10^−12% solution,9%
same,"Mass, dry, sprout",1·10^−12% solution,0.63 g/100 plantlings
same,"Mass, dry, sprout, + % to control",1·10^−12% solution,−1%
same,"Mass, wet, root",1·10^−12% solution,2.65 g/100 plantlings
same,"Mass, wet, root, + % to control",1·10^−12% solution,2%
same,"Mass, wet, sprout",1·10^−12% solution,4.90 g/100 plantlings
same,"Mass, wet, sprout, + % to control",1·10^−12% solution,3%
same,"Length, root",[1],9.5 cm
same,"Length, root, + % to control",[1],9%
same,"Length, sprout",[1],6.3 cm
same,"Length, sprout, + % to control",[1],2%
same,"Mass, dry, root",[1],0.68 g/100 plantlings
same,"Mass, dry, root, + % to control",[1],10%
same,"Mass, dry, sprout",[1],0.55 g/100 plantlings
same,"Mass, dry, sprout, + % to control",[1],8%
same,"Mass, wet, root",[1],5.18 g/100 plantlings
same,"Mass, wet, root, + % to control",[1],43%
same,"Mass, wet, sprout",[1],4.91 g/100 plantlings
same,"Mass, wet, sprout, + % to control",[1],24%
